In the supplement of paper PMC10307832:

Experiments:
Assay in all cases: relative viability (nuclei count vs DMSO), 5 days (fraction); higher = more cells survive
Vorinostat + Bortezomib = compound: O=C(CCCCCCC(=O)Nc1ccccc1)NO [Vorinostat] + CC(C)C[C@H](NC(=O)[C@H](Cc1ccccc1)NC(=O)c1cnccn1)B(O)O [Bortezomib] (partner 0.002 µM)
Method in brief: (§1)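 Medians of duplicate plates are given as relative viability. That measure is the nuclei count in treated wells divided by the count in vehicle wells. Counts were taken on 4× images of lung cancer cell lines in 1536-well plates, 5 days after pin-tool dosing the day after seeding with one drug alone or a fixed anchor-drug dose plus five library-drug doses (not always all listed) in √10 steps.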

Vorinostat + Olaparib = compound: O=C(CCCCCCC(=O)Nc1ccccc1)NO [Vorinostat] + O=C(c1cc(Cc2n[nH]c(=O)c3ccccc23)ccc1F)N1CCN(C(=O)C2CC2)CC1 [Olaparib] (partner 8 µM)
Method in brief: as §1

Vorinostat + Phenformin = compound: O=C(CCCCCCC(=O)Nc1ccccc1)NO [Vorinostat] + N=C(N)NC(=N)NCCc1ccccc1 [Phenformin] (partner 250 µM)
Method in brief: as §1

Vorinostat + Alpelisib = compound: O=C(CCCCCCC(=O)Nc1ccccc1)NO [Vorinostat] + Cc1nc(NC(=O)N2CCC[C@H]2C(N)=O)sc1-c1ccnc(C(C)(C)C(F)(F)F)c1 [Alpelisib] (partner 2 µM)
Method in brief: as §1

Vorinostat + Luminespib = compound: O=C(CCCCCCC(=O)Nc1ccccc1)NO [Vorinostat] + CCNC(=O)c1noc(-c2cc(C(C)C)c(O)cc2O)c1-c1ccc(CN2CCOCC2)cc1 [Luminespib] (partner 0.01 µM)
Method in brief: as §1

Cell Line	relative viability (Vorinostat + Bortezomib; first compound 0.253 µM)	relative viability (Vorinostat + Bortezomib; first compound 0.8 µM)	relative viability (Vorinostat + Bortezomib; first compound 2.53 µM)	relative viability (Vorinostat + Bortezomib; first compound 8 µM)	relative viability (Vorinostat + Olaparib; first compound 0.253 µM)	relative viability (Vorinostat + Olaparib; first compound 0.8 µM)	relative viability (Vorinostat + Olaparib; first compound 2.53 µM)	relative viability (Vorinostat + Olaparib; first compound 8 µM)	relative viability (Vorinostat + Phenformin; first compound 0.253 µM)	relative viability (Vorinostat + Phenformin; first compound 0.8 µM)	relative viability (Vorinostat + Phenformin; first compound 2.53 µM)	relative viability (Vorinostat + Phenformin; first compound 8 µM)	relative viability (Vorinostat + Alpelisib; first compound 0.253 µM)	relative viability (Vorinostat + Alpelisib; first compound 0.8 µM)	relative viability (Vorinostat + Alpelisib; first compound 2.53 µM)	relative viability (Vorinostat + Alpelisib; first compound 8 µM)	relative viability (Vorinostat + Luminespib; first compound 0.253 µM)	relative viability (Vorinostat + Luminespib; first compound 0.8 µM)	relative viability (Vorinostat + Luminespib; first compound 2.53 µM)	relative viability (Vorinostat + Luminespib; first compound 8 µM)
SK-LU-1	0.678	1.22	0.248	0.163	0.417	0.399	0.323	0.14	0.658	0.549	0.285	0.123	1.14	0.721	0.488	0.178	0.21	0.234	0.176	0.196
LC-2-ad	1.01	0.579	0.146	0.0588	0.706	0.541	0.267	0.19	0.568	0.461	0.221	0.133	0.816	0.644	0.0538	0.0781	1.11	0.918	0.367	0.208
LU99A	1.09	0.863	0.298	0.158	0.232	0.177	0.104	0.101	0.952	0.609	0.447	0.185	0.517	0.395	0.178	0.126	0.291	0.26	0.141	0.121
NCI-H1993	1.17	1.13	0.461	0.411	0.919	1.02	0.556	0.383	0.436	0.491	0.588	0.464	0.737	0.691	0.562	0.522	0.874	0.831	0.656	0.4
NCI-H522					0.778	0.654	0.318	0.168	0.728	0.593	0.602	0.252					1.44	0.972	0.361	0.259
NCI-H1944					0.367	0.33	0.166	0.114	0.203	0.19	0.146	0.123	0.849	0.566	0.409	0.151	0.716	0.573	0.304	0.147
NCI-H1650	0.22	0.178	0.179	0.142	0.737	0.62	0.316	0.16	0.412	0.393	0.164	0.14					0.2	0.178	0.171	0.184
PC-3 [JPC-3]	0.846	0.85	0.398	0.216	1.13	1.05	0.379	0.326	0.471	0.465	0.436	0.279	1.01	0.979	0.572	0.259	0.746	0.801	0.282	0.261
NCI-H1793					1.16	0.937	0.358	0.111	0.467	0.415	0.516	0.279	0.905	0.96	0.519	0.251	0.206	0.187	0.159	0.146
